In paper PMC9785921, “Evaluation of Chiral Organosulfur Compounds on Their Activity against the Malaria Parasite Plasmodium falciparum” (Tropical Medicine and Infectious Disease, 2022):
Where two headings read alike, the source gives them in different places. Blank lines part the entries; values can stand above or below the compound they belong to.

What was measured:
P. falciparum 3D7 strain = experiment: Malstat assay, asexual blood stages, CQ-sensitive strain 3D7; type: cell-based; conditions: Plasmodium falciparum; for IC50: read-out: IC50 (µM) CQ-Sensitive Strain 3D7; for IC90: 90% inhibitory concentration estimated from the IC50
Procedure: (§1) Three P. falciparum strains were used for compound testing; a strain sensitive to chloroquine (CQ) 3D7, CQ-resistant strain Dd2 and P. falciparum gametocyte producing NF54 strain. The 3D7 and Dd2 strains were used to investigate the effect of the compounds on asexual blood stage replication. They were cultured in RPMI 1640/HEPES medium (Gibco, Thermo Scientific, Waltham, MA, USA) containing 10 µg/mL gentamicin (Gibco Thermo Scientific, Waltham, MA, USA,), 50 µg/mL hypoxanthine (Sigma-Aldrich, St. Louis, MO, USA), 0.5% v/v Albumax II (Gibco, Thermo Scientific, Waltham, MA, USA) and 5% hematocrit. Cultures were maintained at 37 °C using a gas mixture containing 5% CO2, 5% O2 and 90% N2. […] To obtain highly synchronized cultures, parasite cultures consisting mainly of ring stages were centrifuged, the pellet was resuspended in 10 mL of 5% w/v sorbitol/ddH20 and incubated for 10 min at room temperature. After washing the cells with RPMI to remove residual sorbitol, they were again cultivated, as described above. Erythrocyte concentrate and serum samples were obtained from the Department of Transfusion Medicine, University Hospital Aachen, Germany. The serum samples were mixed and pooled and donors were kept anonymous. The work with blood components from humans was approved by the Ethics commission of the RWTH University Hospital (EK 007/13).
(§2) The antiplasmodial effect of the compounds on P. falciparum asexual blood stage development was carried out using the Malstat assay, as described previously. Compounds dissolved in dimethyl sulfoxide (DMSO) were added to 1% ring stage P. falciparum 3D7 and Dd2 cultures (200 µL/well) in a 96-well plate in triplicate at final concentrations ranging from 100 µM to 0.78 µM. […] CQ at concentrations ranging from 500 nM to 4 nM was used as an internal control in the experiments, while parasites treated with 0.5% v/v DMSO served as the negative control. The parasites were cultured with the compounds for 72 h at 37 °C in the presence of the following gas combination: 5% O2, 5% CO2, and 90% N2. Afterwards, 20 µL of the incubated culture was removed and 100 µL of Malstat reagent (0.1% v/v Triton X-100, 1 g of L-lactate, 0.33 g Tris and 33 mg of 3-acetylpyridine adenine dinucleotide in 100 mL of distilled water, pH 9.0) was added in a new 96-well microtiter plate. Next, 20 µL mixture of NBT/Diaphorase (1:1; 1 mg/mL stock each) was added to the Malstat reaction and the parasite lactate dehydrogenase activity was then quantified by measuring the optical densities at 630 nm. IC50 values were then determined from variable-slope sigmoidal dose-response graphs using the GraphPad Prism program version 5 (GraphPad Software Inc., La Jolla, San Diego, CA, USA).

P. falciparum Dd2 strain = experiment: Malstat assay, asexual blood stages, CQ-resistant strain Dd2; type: cell-based; conditions: Plasmodium falciparum, read-out: IC50 (µM) CQ-Resistant Strain Dd2
Procedure: as §1, §2

[1] = tested on: non-infected erythrocytes; experiment: Hemolytic assay; type: cell-based, human; conditions: IC50 and IC90 concentrations, 48 h, 37 °C, compared with 0.5% v/v DMSO
Procedure: Since the malaria parasite replicates in the red blood cell, we determined if the compounds have an effect on non-infected erythrocytes using hemolytic assays. To this end, 1 mL of washed uninfected erythrocytes at 5% hematocrit in regular medium was plated in triplicate in a 96-well plate (200 µL/well) in the presence of compounds at IC50 and IC90 concentrations. Erythrocytes treated with 0.15% w/v saponin were used as lysis control and 0.5% v/v DMSO was used as the negative control. Following 48 h of incubation at 37 °C, the plate was centrifuged at 500× g for 2 min and 100 µL of the supernatant was transferred to another plate and the absorbance was measured at 550 nm with a spectrophotometer.
(§3) Figure 4 Hemolytic and cytotoxic effect of compounds. (a) Hemolytic effect of compounds. […] The absorbance of free hemoglobin was measured at OD550 nm in the supernatant and normalized to 0.15% w/v saponin (set to 100%), which served as positive control in the experiments. 0.5% v/v DMSO was used as negative control. (b) Cytotoxicity effect of compounds on Hela cells. The cells were plated in 96-well microtiter plates and cultured overnight at 37 °C. The following day, the old medium was removed and 100 µL of fresh medium containing serially diluted compounds in corresponding wells at final concentrations ranging from 100 µM to 0.8 µM was added and the culture was incubated for 72 h. After incubation, the medium was replaced by 100 µL fresh drug-free medium and 20 µL MTT (5 mg/mL) was added in each well and incubated for 3 h at 37 °C. After 3 h, the MTT preparation was then removed from each well and 100 µL solubilization solution was added. Plates were then placed on a rotator at about 500 rpm at RT until the formazan precipitate was completely resuspended and the OD was measured at 450 nm. The data are representative of three independent experiments.

[2] = tested on: P. falciparum NF54 gametocytes; experiment: Gametocyte toxicity test; type: cell-based, Plasmodium falciparum; conditions: 48 h treatment, then 7 d drug-free; for reduction of mature gametocyte numbers (in words) / reduction of mature gametocyte numbers: compound at IC50 concentration; for reduction in stage IV and V gametocyte numbers: compound at IC90 concentration
Procedure: as §1
P. falciparum NF54 parasites were cultured at high parasitemia to induce gametocyte formation. Once stage II gametocytes appeared, 1 mL of culture was aliquoted in triplicate in a 24-well plate with compounds at the respective IC50 and IC90 concentrations that was determined from Malstat assay. The gametocytes were again cultivated for 9 d with the daily replacement of medium. For the first 48 h of cultivation, the gametocytes were treated with test compounds, and subsequently compound free medium was used. On day 9, blood smears were prepared and stained with Giemsa and the gametocytemia was determined by counting the numbers of gametocytes stages IV and V in a total number of 1000 erythrocytes.
Figure 3 Effect of organosulfur compounds on gametocyte development. Cultures rich in stage II gametocyte were incubated with compounds at IC50 and IC90 concentrations for 2 d, and again cultivated for another 7 d with daily replacement of medium. The numbers of stage IV and V gametocytes were determined from Giemsa smears and normalized to 0.5% v/v DMSO treatment which served as negative control (set to 100%). Epoxomicin (Epoxo) at 60 nM served as positive control.

[3] = MTT cytotoxicity assay, Hela cells; type: cell-based; conditions: human, Hela cells (human cervical cancer cell line); for viability at 72 h: about 25 µM
Procedure: The MTT [3-(4,5-dimethylthiazol-2-yl)-2,5-diphenyltetrazolium bromide] assay was performed using the human cervical cancer cell (Hela) line and the hematologic malignancy human erythroleukemia (HEL) cell line to determine if the compounds were toxic (loss of viability) against human cells. MTT is taken up by viable cells and converted by mitochondrial dehydrogenases to a violet formazan product that cannot diffuse through cell membranes, and therefore crystallizes in viable cells. The adherent Hela cells were plated in 96-well microtiter plates and cultured at 37 °C overnight. Compounds were added to the cultures in different serial concentrations in triplicate the next day, and the cells were incubated for 72 h. DMSO was used as the negative control at a final concentration of 0.5% v/v, and a concentration of 15% v/v DMSO which is toxic was added as the positive control. After 72 h of drug treatment, medium-containing drug was replaced with 100 µL fresh drug-free medium. Then, 20 µL MTT (5 mg/mL) was added to each well and incubated for 3 h at 37 °C. The medium was subsequently removed and 100 µL solubilization solution (5% w/v SDS, 0.1 M HCl in 100% vol. DMSO) was added and incubated for 30 min under rotation at room temperature to solubilize the formazan crystals.
For both cell lines, the optical density (OD) of the solution was measured at 550 nm. The OD-values of cultures treated with compounds were normalized to the OD-values of 0.5% v/v DMSO control (set to 100% viability for Hela or 1 for HEL cell line). IC50 values were calculated from MTT assays using Graphpad Prism (V9).
as §3

[4] = 3D7, ring stage parasites, 72 h, Malstat (plasmodial LDH)
[5] = DD2, ring stage parasites, 72 h, Malstat

Compound: CCN(CC)CCCC(C)Nc1ccnc2cc(Cl)ccc12 (stereo not drawn) [Chloroquine, reference compound]
IC50 (P. falciparum 3D7 strain; 3D7, 72 h): 0.02 ± 0.004 µM | IC50 (P. falciparum Dd2 strain; DD2, 72 h): 0.14 ± 0.063 µM

IC50 (P. falciparum 3D7 strain; [4]): 3.8 ± 0.66 µM | IC90 (P. falciparum 3D7 strain; 3D7): 34.2 µM
Compound: CCOC(=O)C1=C(C)N=S2(=NC(c3ccccc3)=CC(c3ccccc3)=C2)c2ccccc21 (stereo not drawn) [Compound 1]
hemolytic effect [1]: no hemolytic effect | reduction of mature gametocyte numbers (in words) [2]: only minor reduction | reduction in stage IV and V gametocyte numbers [2]: very high reduction | viability at 72 h, 50 µM [3]: > 60% | viability at 72 h [3]: > 90%

IC50 (P. falciparum 3D7 strain; [4]): 3.12 ± 0.58 µM | IC90 (P. falciparum 3D7 strain; 3D7): 27.9 µM
Compound: CCOC(=O)C1=C(C)N=S2(=NC(c3ccccc3)=CC(c3ccc(Cl)cc3)=C2)c2ccccc21 (stereo not drawn) [Compound 2]
hemolytic effect [1]: no hemolytic effect | reduction of mature gametocyte numbers (in words) [2]: only minor reduction | reduction in stage IV and V gametocyte numbers [2]: very high reduction | viability at 72 h, 50 µM [3]: > 60% | viability at 72 h [3]: > 90%

IC50 (P. falciparum 3D7 strain; [4]): 22.1 ± 1.06 µM
Compound: O=S1(c2ccc(Br)cc2)=NC(c2ccccc2)=CC(c2ccc(Cl)cc2)=N1 (stereo not drawn) [Compound 3]

IC50 (P. falciparum 3D7 strain; [4]): 9.1 ± 2.59 µM
Compound: CCOC(=O)C1=C(c2cccs2)N=S(=O)(N2CCCCCC2)c2c1cc1ccccc1c2Cl (stereo not drawn) [Compound 4]

IC50 (P. falciparum 3D7 strain; [4]): 10.6 ± 1.53 µM
Compound: O=S1(N2CCCCCC2)=NC(c2ccc(Br)cc2)=Cc2ccccc21 (stereo not drawn) [Compound 6]

IC50 (P. falciparum 3D7 strain; [4]): 35.8 ± 5.11 µM
Compound: CCOC(=O)C1=C(c2cccs2)N=S(=O)(N2CCCCCC2)c2c(C)cccc21 (stereo not drawn) [Compound 7]

IC50 (P. falciparum 3D7 strain; [4]): 12.5 ± 3.27 µM
Compound: Cc1cccc2c1S(=O)(N1CCCCCC1)=NC(c1ccc(Br)cc1)=C2 (stereo not drawn) [Compound 8]

IC50 (P. falciparum 3D7 strain; [4]): 3.3 ± 1.56 µM | IC90 (P. falciparum 3D7 strain; 3D7): 29.7 µM | IC50 (P. falciparum Dd2 strain; [5]): 6.5 ± 0.87 µM
Compound: CC(C)(C)c1ccc2c(c1)C=C(c1ccccc1)N=S2(=O)N1CCCCCC1 (stereo not drawn) [Compound 9]
hemolytic effect [1]: no hemolytic effect | reduction of mature gametocyte numbers [2]: about 50% | viability at 72 h, 50 µM [3]: > 60% | viability at 72 h [3]: > 90%

IC50 (P. falciparum 3D7 strain; [4]): 46.4 ± 2.67 µM
Compound: O=S1(N2CCCCCC2)=NC(c2ccccc2)=Cc2ccccc21 (stereo not drawn) [Compound 10]

IC50 (P. falciparum 3D7 strain; [4]): 12 ± 4.28 µM
Compound: CCOC(=O)C1=C(C)N=S(=O)(N2CCCCCC2)c2ccc(C)cc21 (stereo not drawn) [Compound 11]

IC50 (P. falciparum 3D7 strain; [4]): 21.3 ± 4.05 µM
Compound: Cc1ccc2c(c1)C=C(c1ccccc1)N=S2(=O)N1CCCCCC1 (stereo not drawn) [Compound 12]

IC50 (P. falciparum 3D7 strain; [4]): 20.3 ± 1.69 µM
Compound: O=S1(N2CCCCCC2)=NC(c2ccccc2)=Cc2cccc(Cl)c21 (stereo not drawn) [Compound 13]

IC50 (P. falciparum 3D7 strain; [4]): 10.3 ± 0.9 µM
Compound: O=[N+]([O-])c1ccc2c(c1)C=C(c1ccccc1)N=S2(=O)N1CCCCCC1 (stereo not drawn) [Compound 14]

IC50 (P. falciparum 3D7 strain; [4]): 5.2 ± 1.95 µM | IC90 (P. falciparum 3D7 strain; 3D7): 46.8 µM
Compound: CCOC(=O)C1=C(C)N=S(=O)(N2CCCCCC2)c2ccc([N+](=O)[O-])cc21 (stereo not drawn) [Compound 15]
hemolytic effect [1]: no hemolytic effect | reduction of mature gametocyte numbers (in words) [2]: only minor reduction | reduction in stage IV and V gametocyte numbers [2]: very high reduction | viability at 72 h, 50 µM [3]: > 60% | viability at 72 h [3]: > 90%

IC50 (P. falciparum 3D7 strain; [4]): 3.1 ± 0.26 µM | IC90 (P. falciparum 3D7 strain; 3D7): 27.9 µM | IC50 (P. falciparum Dd2 strain; [5]): 4.4 ± 0.59 µM
Compound: CCOC(=O)C1=C(c2ccc(C)cc2)N=S(=O)(N2CCCCCC2)c2ccccc21 (stereo not drawn) [Compound 16]
hemolytic effect [1]: no hemolytic effect | reduction of mature gametocyte numbers [2]: about 50% | viability at 72 h, 50 µM [3]: > 60% | viability at 72 h [3]: > 90%

IC50 (P. falciparum 3D7 strain; [4]): 2.6 ± 0.7 µM | IC90 (P. falciparum 3D7 strain; 3D7): 23.4 µM | IC50 (P. falciparum Dd2 strain; [5]): 4 ± 0.28 µM
Compound: CCOC(=O)C1=C(c2ccc(C)cc2)N=S(=O)(N2CCCCCC2)c2ccc(C)cc21 (stereo not drawn) [Compound 17]
hemolytic effect [1]: no hemolytic effect | reduction of mature gametocyte numbers [2]: about 50% | viability at 72 h, 50 µM [3]: > 60% | viability at 72 h [3]: > 90%

IC50 (P. falciparum 3D7 strain; [4]): 26.5 ± 1.19 µM
Compound: CCOC(=O)C1=C(c2ccccc2)N=S(=O)(N2CCCCCC2)c2ccccc21 (stereo not drawn) [Compound 18]

IC50 (P. falciparum 3D7 strain; [4]): 31.5 ± 4.9 µM
Compound: CCOC(=O)C1=C(c2cccs2)N=S(=O)(N2CCCCCC2)c2ccccc21 (stereo not drawn) [Compound 19]

IC50 (P. falciparum 3D7 strain; [4]): 8 ± 0.53 µM
Compound: CN1CCC[C@H](NC(=S)Nc2cc(C(F)(F)F)cc(C(F)(F)F)c2)C1 [Compound 20]

IC50 (P. falciparum 3D7 strain; [4]): 14.1 ± 1.5 µM
Compound: CC(C)C[C@@H](CN=[S@](C)(=O)c1ccccc1)NC(=S)Nc1cc(C(F)(F)F)cc(C(F)(F)F)c1 [Compound 21]

IC50 (P. falciparum 3D7 strain; [4]): 15.9 ± 1.46 µM
Compound: CC(C)[C@@H](CN=[S@@](C)(=O)c1ccccc1)NC(=S)Nc1cc(C(F)(F)F)cc(C(F)(F)F)c1 [Compound 22]

IC50 (P. falciparum 3D7 strain; [4]): 24.9 ± 1.06 µM
Compound: O=[S@@]1(c2ccccc2)=Nc2ccccc2-c2ncc3ccccc3c21 [Compound 23]
